Data on 14 molecules can be found in publication PMC5026600 (ACS chemical biology, 2016).

For test [1], the target named is MycCI-RhFRED (Micromonospora griseorubida, UniProt Q83WF5). Kind of test: Steady-state kinetics / TOF, product formation by HPLC. As to conditions: for Fold lower rate of product formation vs tripartite MycCI system: MycCI-RhFRED compared to MycCI/MycCII/MBP-FdR, label is the product formed. The format is biochemical.
Test [2] has as its target T1, MycCI (Micromonospora griseorubida, UniProt Q83WF5).
T1 sequence (Q83WF5 1-388): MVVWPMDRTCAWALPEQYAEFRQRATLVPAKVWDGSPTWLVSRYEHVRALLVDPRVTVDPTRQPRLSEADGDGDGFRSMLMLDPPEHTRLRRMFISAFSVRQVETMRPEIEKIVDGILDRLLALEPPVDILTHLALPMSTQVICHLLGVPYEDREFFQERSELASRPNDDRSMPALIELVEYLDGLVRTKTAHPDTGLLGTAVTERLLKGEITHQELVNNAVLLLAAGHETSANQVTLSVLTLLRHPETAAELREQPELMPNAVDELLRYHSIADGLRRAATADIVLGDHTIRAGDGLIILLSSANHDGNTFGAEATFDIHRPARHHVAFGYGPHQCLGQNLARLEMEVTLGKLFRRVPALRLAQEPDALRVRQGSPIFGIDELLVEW
Put plainly: Equilibrium substrate binding assay. As to conditions: for Percent of enzyme in high-spin state at saturating substrate: MycCI wild-type, relative to saturation with 10 taken as complete conversion.

For test [3], the target named is T2, MycCI/MycCII (Micromonospora griseorubida, UniProt Q83WF5).
T2 sequence (Q83WF5 1-388): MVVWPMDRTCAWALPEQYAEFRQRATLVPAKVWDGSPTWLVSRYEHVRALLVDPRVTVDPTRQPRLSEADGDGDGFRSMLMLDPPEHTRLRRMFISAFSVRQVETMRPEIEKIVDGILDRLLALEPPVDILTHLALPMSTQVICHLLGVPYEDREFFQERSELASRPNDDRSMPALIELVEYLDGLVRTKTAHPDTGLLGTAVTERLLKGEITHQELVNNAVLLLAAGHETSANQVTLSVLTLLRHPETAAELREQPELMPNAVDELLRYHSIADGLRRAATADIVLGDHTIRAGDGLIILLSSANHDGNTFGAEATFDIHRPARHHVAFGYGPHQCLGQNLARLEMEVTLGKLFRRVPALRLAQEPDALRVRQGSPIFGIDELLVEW
Put plainly: Total turnover number. It counts as biochemical. As to conditions: MycCI/MycCII/MBP-FdR.

Test [4] deals with T3, MycCI in conjunction with MycCII and MBP-FdR (Micromonospora griseorubida, UniProt Q83WF5).
T3 sequence (Q83WF5 1-388): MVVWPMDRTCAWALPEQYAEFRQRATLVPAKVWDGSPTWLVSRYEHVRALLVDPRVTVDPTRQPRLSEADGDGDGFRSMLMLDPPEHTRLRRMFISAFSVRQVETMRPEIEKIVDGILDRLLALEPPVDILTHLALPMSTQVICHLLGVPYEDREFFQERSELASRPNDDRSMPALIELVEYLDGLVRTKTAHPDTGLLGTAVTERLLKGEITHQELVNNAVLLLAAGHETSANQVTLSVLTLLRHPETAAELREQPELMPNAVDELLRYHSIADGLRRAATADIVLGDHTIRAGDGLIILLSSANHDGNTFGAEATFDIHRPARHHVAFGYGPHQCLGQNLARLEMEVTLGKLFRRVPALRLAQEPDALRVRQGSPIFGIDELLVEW
Put plainly: Scale-up reactions with MycCI, MycCII and MBP-FdR, conversion. The format is biochemical. As to conditions: for Conversion: scale-up reactions.

The target in test [5] is T4, MycCI/MycCII/MBP-FdR (Micromonospora griseorubida, UniProt Q83WF5).
T4 sequence (Q83WF5 1-388): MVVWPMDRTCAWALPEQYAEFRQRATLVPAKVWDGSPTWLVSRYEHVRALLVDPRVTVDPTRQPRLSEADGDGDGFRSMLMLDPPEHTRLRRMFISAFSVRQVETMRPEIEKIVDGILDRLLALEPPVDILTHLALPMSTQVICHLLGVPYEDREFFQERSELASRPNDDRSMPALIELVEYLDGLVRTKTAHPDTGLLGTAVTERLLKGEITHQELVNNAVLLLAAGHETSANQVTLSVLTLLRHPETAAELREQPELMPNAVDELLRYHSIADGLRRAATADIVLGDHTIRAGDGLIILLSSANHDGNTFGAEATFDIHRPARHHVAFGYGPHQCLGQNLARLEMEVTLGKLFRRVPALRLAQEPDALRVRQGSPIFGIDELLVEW
Kind of test: Steady-state kinetics / TOF, product formation by HPLC. The format is biochemical.

Test [6] deals with T1, MycCI. As to conditions: determined by monitoring NADPH consumption; cited from earlier work.
In test [7] the target is TylHI/TylHII (Streptomyces fradiae, UniProt Q9ZHQ1). Kind of test: Turnover frequency. The format is biochemical. As to conditions: TylHI/TylHII/MBP-FdR.
Sequence of TylHI/TylHII (Q9ZHQ1 whole entry): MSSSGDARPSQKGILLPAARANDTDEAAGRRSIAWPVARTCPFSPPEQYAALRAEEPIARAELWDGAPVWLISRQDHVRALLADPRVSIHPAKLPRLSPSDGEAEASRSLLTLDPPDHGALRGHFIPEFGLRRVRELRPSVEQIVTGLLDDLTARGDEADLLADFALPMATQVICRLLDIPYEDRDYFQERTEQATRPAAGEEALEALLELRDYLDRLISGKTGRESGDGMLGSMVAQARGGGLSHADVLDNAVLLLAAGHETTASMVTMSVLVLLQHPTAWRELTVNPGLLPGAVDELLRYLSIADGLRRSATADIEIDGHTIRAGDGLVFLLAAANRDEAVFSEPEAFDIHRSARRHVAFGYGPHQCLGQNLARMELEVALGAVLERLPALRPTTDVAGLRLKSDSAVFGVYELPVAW
Test [8] addresses TylHI/MycCII (Streptomyces fradiae, UniProt Q9ZHQ1). Kind of test: Turnover frequency. The format is biochemical. As to conditions: MycCII as surrogate ferredoxin vs TylHII.
Test [9] addresses OleP. As to conditions: binding to OleP; cited from earlier work.
Test [10] concerns TamI-RhFRED. Particulars: cited from earlier work.
The target in test [11] is MycCI (Micromonospora griseorubida) (UniProt Q83WF5). As to conditions: cited from earlier work.
In test [12] the target is T1, MycCI. Particulars: read-out: apparent dissociation constant (Kd); N-terminal His-tagged MycCII binding to MycCI; cited from earlier work.

Read-outs that look alike come from different tables or passages of the source.

Sequence of TylHI/MycCII (Q9ZHQ1 whole entry): as above

As to 23-hydroxy-tylactone [compound 15], the “Fold lower rate of product formation vs tripartite MycCI system” value in test [1] is listed as “about 3 fold”. Turning to `CC[C@H]1OC(=O)[C@H](C)[C@@H](O)[C@@H](C)C[C@@H](C)C(=O)/C=C/[C@H]1C` [compound 2, 10-deoxymethynolide], in [2] (MycCI), the “Concentration-dependent change in the spin state of the enzyme” value is “did not induce a concentration-dependent change in the spin state”. Also, the “C-H oxidation of the compound by the enzyme” value (“C-H oxidation of the compound” for short) in test [3] was “unable to catalyze C-H oxidation”. On to `CC[C@H]1OC(=O)[C@H](C)[C@@H](O[C@@H]2O[C@H](C)C[C@H](N(C)C)[C@H]2O)[C@@H](C)C[C@@H](C)C(=O)/C=C/[C@H]1C` [compound 3, YC-17], for which the “Percent of enzyme in high-spin state at saturating substrate” value (from here on “Percent of enzyme in high-spin state”) in test [2] was ~ 30%. Also, the “C-H oxidation of the compound” value in test [3] was “unable to catalyze C-H oxidation”. For the molecule `CC[C@H]1OC(=O)[C@H](C)C(=O)[C@H](C)[C@@H](O)[C@@H](C)C[C@@H](C)C(=O)/C=C/[C@H]1C` [compound 4, narbonolide], the “Concentration-dependent change in the spin state of the enzyme” value in test [2] (MycCI) is “did not induce a concentration-dependent change in the spin state”. The “C-H oxidation of the compound” value in test [3] is “unable to catalyze C-H oxidation”. Turning to `CC[C@H]1OC(=O)[C@H](C)C(=O)[C@H](C)[C@@H](O[C@@H]2O[C@H](C)C[C@H](N(C)C)[C@H]2O)[C@@H](C)C[C@@H](C)C(=O)/C=C/[C@H]1C` [compound 5, narbomycin], the “Percent of enzyme in high-spin state” value in test [2] was ~ 80%. The “Monohydroxylated product, share of the reaction mixture” value in test [4] (scale-up, first monohydroxylated product) is ~ 2%. Further, the “Slightly more polar monohydroxylated product, share of the reaction mixture” value in test [4] (scale-up, second product) is ~ 0.5%. With `CC[C@H]1OC(=O)/C=C/[C@H](C)[C@@H](O)[C@@H](C)C[C@@H](C)C(=O)/C=C/C=C/[C@@H]1C` [compound 8, protomycinolide IV], the “Percent of enzyme in high-spin state” value in [2] is listed as ~ 80%. The Conversion in test [4] was ~ 30%. Moreover, the “Fold lower specificity constant relative to 10” value in [1] (MycCI-RhFRED, product formation) is on record as ~ 14 fold. The kcat is the number of substrate molecules converted per active site and unit of time at saturation. On to `CC[C@H]1OC(=O)/C=C/[C@H](C)[C@@H](O[C@@H]2O[C@H](C)C[C@H](N(C)C)[C@H]2O)[C@@H](C)C[C@@H](C)C(=O)/C=C/C=C/[C@@H]1C` [compound 9, mycinamicin VIII], for which the “Turnover rate at low substrate concentration” value in test [5] (MycCI/MycCII/MBP-FdR, 10 μM substrate) came to 2.3 ± 0.3 min⁻¹. The “Turnover frequency (TOF)” value in [5] (tripartite MycCI/MycCII/MBP-FdR, 500 μM substrate) amounted to 1.4 ± 0.1 min⁻¹; in test [1] (MycCI-RhFRED, 500 μM substrate), 1.19 ± 0.06 min⁻¹. Also, in [6], the catalytic constant (kcat) was 1.73 ± 0.033 s⁻¹. The molecule `CC[C@H]1C[C@@H](C)C(=O)/C=C/C(C)=C/[C@H](C)[C@@H](CC)OC(=O)C[C@@H](O)[C@H](C)[C@H]1O` [compound 10, tylactone] showed a Kd in test [2] (Kd, MycCI) of roughly 3 µM. The Conversion in test [4] is given as ~ 50%.

Consider `CC[C@H]1OC(=O)C[C@@H](O)[C@H](C)[C@@H](O[C@@H]2O[C@H](C)[C@@H](O)[C@H](N(C)C)[C@H]2O)[C@@H](CC=O)C[C@@H](C)C(=O)/C=C/C(C)=C/[C@@H]1C` [compound 12, 23-deoxy-5-O-mycaminosyl-tylonolide], for which the “Turnover frequency (TOF)” value in [7] was found to be 0.14 ± 0.03 min⁻¹. Further, the “Fold increase of TOF with MycCII instead of TylHII” value in [8] stood at 12 fold.

For `CC[C@H]1OC(=O)/C=C/[C@H](C)[C@@H](O)[C@@H](C)C[C@@H](C)C(=O)/C=C/C=C/[C@@H]1CO` [compound 13, mycinolide IV], the “Fold lower rate of product formation vs tripartite MycCI system” value in [1] is given as roughly 6 fold.

For `CC(=O)N1CCN(c2ccc(OCC3COC(Cn4ccnc4)(c4ccc(Cl)cc4Cl)O3)cc2)CC1` (centres unmarked) [ketoconazole], the Kd in [9] is 0.005 µM.

Take `CC(/C=C/C(O)=C1/C(=O)CNC1=O)=C\[C@@H](C)[C@H]1O[C@@]2(C)O[C@H](C(=O)[C@H]3O[C@]32C)[C@@H]1C` [tirandamycin A]: the catalytic constant (kcat) in test [10] is 0.00183 ± 0.00017 s⁻¹. For MycCII (from UniProt Q83WF4), the Kd in [11] was 7 µM.

B1: MycCII: [3Fe-4S]-type ferredoxin encoded by mycCII, redox partner of MycCI (protein)
chain: MRIVLDAERCVGAGQCEATAPELFTQGDDGLGLVRDRPVTPELLGPAREAVDRCPVRAIRIESSVRTGWARGAG
modifications: left off: His tag, N-terminal, state not stated
On to B1, for which, in test [12], the Kd was 7 µM.
